The subject of data set [1] is stomach (gastric peristalsis). Briefly: Testing of the gastric peristalsis (measurements of the gastric pressure). The settings on record: for inhibition in vivo at 20 mg/kg: Rattus norvegicus, ip, read-out: Frequency decrease in %. Type of data set: in vivo, rats.
Source text: To determine the functioning of the gastric peristalsis, rats weighing about 200 g. are narcotized by means of ketamine hydrochloride and xylazine. A catheter is introduced into the Vena jugularis of the narcotized rats and a tracheal catheter into their trachea. A stomach probe is inserted into their stomach and tied thereto. Said probe is connected via a three-way cock with a Statham pressure imparting device (P 23 DB). The stomach is sealed off by a ligature at the pylorus and at the cardia. The stomach is filled with 3 ml. of an 0.9% aqueous sodium chloride solution. The pressure waves produced by the stomach are continuously registered by a suitable recording device such as by a Watanabe Multicorder (MC 641). In order to determine the effect of the compounds to be tested, they are dissolved in physiological sodium chloride solution or are suspended in Tylose MH 50 solution. Said solutions or suspensions are administered intraperitoneally to the rats in a dosis of 20 mg./kg. The amplitudes and frequencies of the pressure wave-like movements of the stomach as they occur before and after administration of the compound to be tested, are compared.
The nature of data set [2]: Determination of the acute toxicity (seven-day, single intraperitoneal dose). The conditions noted are these: in vivo, ip, white NMRI mouse, fasting, single i.p. dose, probit analysis. Here is the method:
The acute seven-day toxicity is determined by intraperitoneal administration of a single dose of the respective compound to a fasting white NMRI mouse. The LD50 -values are calculated via EDV by a probit analysis as described in the book "Grundbegriffe der Biometrie" (Basic biometrical definitions) by L. Cavalli-Sforza, page 153 et seq., published by Gustav Fischer Verlag, Stuttgart, 1964.

The mark [3] stands for this setting: gastric pressure waves, narcotized rats, 20 mg./kg. intraperitoneally, before vs after administration.

These results are taken from patent publication US4374846A, “N-Amino alkyl indole compounds compositions containing same, and a method of using same in therapy of disorders of gastrointestinal motility” (Kali-Chemie Pharma GmbH, priority 1979, dated 1983).

Each structure is given as a SMILES string. Like-named read-outs stand apart in the source and are kept apart here.

What is called LD50 is the dose expected to kill half of the subjects tested. Low readings indicate greater toxicity, high ones lower toxicity.

With `COC(=O)c1c(OC)c2ccccc2n1CCN(C)C.Cl` [(A), 1-(β-Dimethylaminoethyl)-2-methoxy carbonyl-3-methoxy-indole hydrochloride], in data set [1] (setting [3]), the inhibition in vivo at 20 mg/kg stood at 3.3% and the “Factor of the increase in amplitude” value was found to be 6.2. In data set [2], the LD50 at 168 h was found to be 171 mg/kg.

With `COC(=O)c1c(OC)c2ccc(C)cc2n1CCN(C)C.Cl` [(B), 1-(β-dimethylaminoethyl)-2-methoxy carbonyl-3-methoxy-6-methyl indole hydrochloride], in data set [1] (setting [3]), the inhibition in vivo at 20 mg/kg turned out to be 7% and the “Factor of the increase in amplitude” value was 22.7. In data set [2], this molecule displayed an LD50 at 168 h of 68 mg/kg.

As to `CCOc1c(C(=O)OC)n(CCN(C)C)c2ccc(Cl)cc12.Cl` [(C), 1-(β-dimethylaminoethyl)-2-methoxy carbonyl-3-ethoxy-5-chloro indole hydrochloride], in data set [1] (setting [3]), the inhibition in vivo at 20 mg/kg turned out to be 9% and the “Factor of the increase in amplitude” value was determined as 1.4. The same molecule had an LD50 at 168 h in data set [2] of 141 mg/kg.

As to `COC(=O)c1c(OC(C)C)c2cc(C)ccc2n1CCN(C)C.Cl` [(D), 1-(β-dimethylaminoethyl)-2-methoxy carbonyl-3-isopropyloxy-5-methyl indole hydrochloride], in data set [1] (setting [3]), the inhibition in vivo at 20 mg/kg was 19% and the “Factor of the increase in amplitude” value was determined as 6.9. Moreover, the LD50 at 168 h in data set [2] came out at 137 mg/kg.

In the case of `COC(=O)c1c(OCc2ccccc2)c2cc(Cl)ccc2n1CCN(C)C.Cc1ccc(S(=O)(=O)O)cc1` [(E), 1-(β-dimethylaminoethyl)-2-methoxy carbonyl-3-benzyloxy-5-chloroindole toluene-4-sulfonate], the inhibition in vivo at 20 mg/kg in data set [1] is -2%. For the same molecule, the “Factor of the increase in amplitude” value in data set [1] (setting [3]) came out at 0.6. The molecule further registered an LD50 at 168 h in data set [2] of 283 mg/kg.

Turning to `CCOC(=O)c1c(OCC)c2ccc(Cl)cc2n1CCN(C)C.Cc1ccc(S(=O)(=O)O)cc1` [(F), 1-(β-dimethylaminoethyl)-2-ethoxy carbonyl-3-ethoxy-6-chloro indole toluene-4-sulfonate], the inhibition in vivo at 20 mg/kg in data set [1] was 5%. Moreover, in data set [1] (setting [3]), the “Factor of the increase in amplitude” value stood at 10.9. The molecule also had an LD50 at 168 h in data set [2] of 226 mg/kg.

Consider `COC(=O)c1c(OC)c2ccccc2n1CCCNC(C)C.Cl` [(G), 1-(γ-isopropylaminopropyl)-2-methoxy carbonyl-3-methoxy indole hydrochloride], for which, in data set [1] (setting [3]), the inhibition in vivo at 20 mg/kg was determined as 29% and the “Factor of the increase in amplitude” value is given as 8.3. The LD50 at 168 h in data set [2] was 91 mg/kg.

For `COC(=O)c1c(OC)c2ccccc2n1CCCCN(C)C.Cc1ccc(S(=O)(=O)O)cc1` [(H), 1-(δ-dimethylaminobutyl)-2-methoxy carbonyl-3-methoxy indole toluene-4-sulfonate], the inhibition in vivo at 20 mg/kg in data set [1] is 11%. Besides, in data set [1] (setting [3]), the “Factor of the increase in amplitude” value worked out at 3.5. Further, the LD50 at 168 h in data set [2] came to 164 mg/kg.

Consider `COC(=O)c1c(OC)c2ccccc2n1CCCN1CCCCC1` [(I), 1-(γ-N-piperidinopropyl)-2-methoxy carbonyl-3-methoxy indole maleinate], for which, in data set [1] (setting [3]), the inhibition in vivo at 20 mg/kg came out at 15% and the “Factor of the increase in amplitude” value came to 8.6. Further, the LD50 at 168 h in data set [2] was found to be 141 mg/kg.

Consider `COc1c(C(=O)O)n(CCN(C)C)c2ccccc12` [(K), 1-(β-dimethylaminoethyl)-2-hydroxy carbonyl-3-methoxy indole], for which, in data set [1] (setting [3]), the inhibition in vivo at 20 mg/kg worked out at 21% and the “Factor of the increase in amplitude” value worked out at 3.6. In data set [2], this molecule returned an LD50 at 168 h of 967 mg/kg.

Turning to `COc1c(C(N)=O)n(CCN(C)C)c2ccccc12` [(L), 1-(β-dimethylaminoethyl)-2-amino carbonyl-3-methoxy indole], in data set [1] (setting [3]), the inhibition in vivo at 20 mg/kg came to 28% and the “Factor of the increase in amplitude” value was 13.9. In data set [2], this molecule showed an LD50 at 168 h of 68 mg/kg.

Consider `CNC(=O)c1c(OC)c2ccccc2n1CCN(C)C` [(M), 1-(β-dimethylaminoethyl)-2-methylamino carbonyl-3-methoxy indole], for which, in data set [1] (setting [3]), the inhibition in vivo at 20 mg/kg was 13% and the “Factor of the increase in amplitude” value is on record as 21.4. This molecule showed an LD50 at 168 h in data set [2] of 68 mg/kg.
